Results reported in patent publication US20220354863A1, “METHODS FOR THE PROPHYLACTIC TREATMENT OF CANCER IN PATIENTS SUFFERING FROM PANCREATITIS” (INSERM (INSTITUT NATIONAL DE LA SANTÈ ET DE LA RECHERCH …, priority 2019, published 2022).

How the values were obtained:
[1] = tested on: caerulein-treated KC mice; assay: Caerulein-induced pancreatic injury in oncogenic Kras (KC) mice; assay type: in vivo; conditions: KrasG12D background, 10 mg/kg by gavage
Description: The LSL-Kras^G12D (from D Tuveson, Mouse Models of Human Cancers Consortium repository (NCI-Frederick, USA), Pdx1-cre (from DA Melton, Harvard University, Cambridge, Mass., USA), p110α^lox (from B. Vanhaesebroeck, UCL, London), strains were interbred on mixed background (CD1/C57B16) to obtain compound mutant Pdx1-Cre;LSL-Kras^G12D (named KC), pdx1-Cre;p110α^lox/lox (Pdx1-Cre;p110α^lox/lox were named α^inC; pdx1-Cre;LSL-Kras^G12D;p110α^lox/lox were named Kα^inC). Littermates not expressing Cre as well as Pdx1-Cre and p110α^lox/lox mice of the same age were used as control. All procedures and animal housing are conformed to the regulatory standards and were approved by the Ethical committee according to European legislation translated to French Law as Décret 2013-118 1 Feb. 2013 (APAFIS 3601-2015121622062840). Genotyping was performed as described: the genetically modified allele is called p110α^lox or p110α^ΔDFG (here named Rec) after Cre recombination. DFG is a conserved motif in the activation loop of the p110α kinase domain critical for its catalytic activity. The gene targeting strategy used is different from a traditional conditional knock-out strategy. […] Primers corresponds to post-cre primers used to verify the presence of recombined allele ΔDFG: ma9: -[…]; ma5: […]; annealing temperature: 65° C.; recombined ΔDFG-544 bp, wild type (+) or unrecombined lox- >10 kbp amplicon. Genotyping of tail or pancreas samples was performed after DNA extraction with Sigma kit (XNAT-100RXN).
Animals were euthanized 1, 3, 7 or 17 days later, and recombination verified before analysis as described in [44, 45].
Immunostainings were conducted using standard methods on formalin-fixed, paraffin-embedded tissues, including both mice and human pancreas.

p110β = p110β (Homo sapiens, UniProt P42338); conditions: read-out: in vitro IC50 β; cited from earlier work
p110δ = p110δ (Homo sapiens, UniProt O00329); conditions: read-out: in vitro IC50 δ; cited from earlier work
p110γ = p110γ (Homo sapiens, UniProt P48736); conditions: read-out: in vitro IC50 γ; cited from earlier work
mTOR = mTOR (Homo sapiens, UniProt P42345); conditions: cited from earlier work
C2β = C2β (Homo sapiens, UniProt O00750); conditions: read-out: in vitro IC50 C2β; cited from earlier work
C2α = C2α (Homo sapiens, UniProt O00443); conditions: read-out: in vitro IC50 C2α; cited from earlier work
vps34 = vps34 (Homo sapiens, UniProt Q8NEB9); conditions: read-out: in vitro IC50 vps34; cited from earlier work
Sequence of vps34 (Q8NEB9 whole entry, species assumed): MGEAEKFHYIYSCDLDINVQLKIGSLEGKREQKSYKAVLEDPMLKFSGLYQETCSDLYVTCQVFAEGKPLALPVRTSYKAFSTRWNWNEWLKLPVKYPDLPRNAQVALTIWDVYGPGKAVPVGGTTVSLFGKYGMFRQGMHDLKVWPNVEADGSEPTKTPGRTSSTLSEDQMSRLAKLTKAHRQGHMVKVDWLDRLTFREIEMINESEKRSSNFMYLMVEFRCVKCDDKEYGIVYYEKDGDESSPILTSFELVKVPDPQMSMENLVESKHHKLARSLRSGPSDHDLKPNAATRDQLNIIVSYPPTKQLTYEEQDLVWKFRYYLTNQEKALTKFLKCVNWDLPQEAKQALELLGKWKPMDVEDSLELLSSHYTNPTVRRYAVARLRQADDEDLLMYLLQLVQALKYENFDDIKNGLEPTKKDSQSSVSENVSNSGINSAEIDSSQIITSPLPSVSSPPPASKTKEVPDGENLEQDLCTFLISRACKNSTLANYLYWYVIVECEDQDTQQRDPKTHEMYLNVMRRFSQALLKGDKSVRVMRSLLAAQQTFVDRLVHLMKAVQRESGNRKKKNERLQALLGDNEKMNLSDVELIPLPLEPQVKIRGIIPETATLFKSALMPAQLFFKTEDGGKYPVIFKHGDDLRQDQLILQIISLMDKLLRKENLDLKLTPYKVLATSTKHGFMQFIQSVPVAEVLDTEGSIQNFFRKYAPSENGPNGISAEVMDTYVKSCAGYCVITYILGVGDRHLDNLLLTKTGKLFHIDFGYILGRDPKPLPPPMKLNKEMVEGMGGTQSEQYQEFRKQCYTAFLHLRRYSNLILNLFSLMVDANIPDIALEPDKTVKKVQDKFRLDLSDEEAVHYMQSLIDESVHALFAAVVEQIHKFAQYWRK

Sequence of C2β (O00750 whole entry): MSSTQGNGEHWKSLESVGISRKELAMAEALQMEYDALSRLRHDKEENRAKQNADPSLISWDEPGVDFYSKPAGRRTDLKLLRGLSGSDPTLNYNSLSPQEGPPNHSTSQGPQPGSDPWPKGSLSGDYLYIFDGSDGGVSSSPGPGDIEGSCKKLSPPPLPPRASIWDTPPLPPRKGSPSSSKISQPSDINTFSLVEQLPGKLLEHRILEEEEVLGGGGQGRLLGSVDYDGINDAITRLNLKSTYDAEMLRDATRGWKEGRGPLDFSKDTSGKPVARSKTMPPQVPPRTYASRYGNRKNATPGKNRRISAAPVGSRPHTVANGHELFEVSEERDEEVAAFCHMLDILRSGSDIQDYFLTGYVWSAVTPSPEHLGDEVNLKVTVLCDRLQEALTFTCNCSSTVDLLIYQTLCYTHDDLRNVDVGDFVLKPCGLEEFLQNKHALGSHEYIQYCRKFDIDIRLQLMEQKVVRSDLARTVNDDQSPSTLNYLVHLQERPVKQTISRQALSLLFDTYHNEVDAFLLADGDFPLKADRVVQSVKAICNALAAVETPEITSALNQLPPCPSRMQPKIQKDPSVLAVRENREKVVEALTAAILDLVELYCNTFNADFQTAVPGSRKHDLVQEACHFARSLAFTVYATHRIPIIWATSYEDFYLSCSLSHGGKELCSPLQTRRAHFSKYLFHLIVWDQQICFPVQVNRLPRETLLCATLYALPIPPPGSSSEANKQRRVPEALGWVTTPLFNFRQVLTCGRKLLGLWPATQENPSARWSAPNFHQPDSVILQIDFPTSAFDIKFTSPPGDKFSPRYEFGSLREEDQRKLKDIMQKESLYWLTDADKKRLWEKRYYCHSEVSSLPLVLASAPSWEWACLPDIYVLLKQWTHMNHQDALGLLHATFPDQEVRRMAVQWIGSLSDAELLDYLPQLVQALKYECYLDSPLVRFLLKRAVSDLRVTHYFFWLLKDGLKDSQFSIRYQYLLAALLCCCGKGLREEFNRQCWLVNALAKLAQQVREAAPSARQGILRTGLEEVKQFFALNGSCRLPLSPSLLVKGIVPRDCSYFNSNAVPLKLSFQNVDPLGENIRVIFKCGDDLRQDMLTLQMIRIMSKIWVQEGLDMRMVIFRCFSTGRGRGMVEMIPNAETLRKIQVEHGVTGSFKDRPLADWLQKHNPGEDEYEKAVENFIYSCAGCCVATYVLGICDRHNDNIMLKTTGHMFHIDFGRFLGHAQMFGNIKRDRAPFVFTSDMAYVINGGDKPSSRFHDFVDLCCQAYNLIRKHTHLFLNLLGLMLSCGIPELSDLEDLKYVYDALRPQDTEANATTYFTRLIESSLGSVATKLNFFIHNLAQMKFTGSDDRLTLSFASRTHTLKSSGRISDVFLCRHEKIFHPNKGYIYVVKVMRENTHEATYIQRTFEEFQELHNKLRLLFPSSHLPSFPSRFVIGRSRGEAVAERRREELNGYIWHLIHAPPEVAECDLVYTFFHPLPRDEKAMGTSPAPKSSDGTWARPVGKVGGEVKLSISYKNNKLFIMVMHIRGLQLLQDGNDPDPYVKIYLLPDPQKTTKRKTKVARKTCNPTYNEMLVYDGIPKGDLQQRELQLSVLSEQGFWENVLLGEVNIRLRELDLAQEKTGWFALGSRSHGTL
Sequence of p110δ (O00329 whole entry): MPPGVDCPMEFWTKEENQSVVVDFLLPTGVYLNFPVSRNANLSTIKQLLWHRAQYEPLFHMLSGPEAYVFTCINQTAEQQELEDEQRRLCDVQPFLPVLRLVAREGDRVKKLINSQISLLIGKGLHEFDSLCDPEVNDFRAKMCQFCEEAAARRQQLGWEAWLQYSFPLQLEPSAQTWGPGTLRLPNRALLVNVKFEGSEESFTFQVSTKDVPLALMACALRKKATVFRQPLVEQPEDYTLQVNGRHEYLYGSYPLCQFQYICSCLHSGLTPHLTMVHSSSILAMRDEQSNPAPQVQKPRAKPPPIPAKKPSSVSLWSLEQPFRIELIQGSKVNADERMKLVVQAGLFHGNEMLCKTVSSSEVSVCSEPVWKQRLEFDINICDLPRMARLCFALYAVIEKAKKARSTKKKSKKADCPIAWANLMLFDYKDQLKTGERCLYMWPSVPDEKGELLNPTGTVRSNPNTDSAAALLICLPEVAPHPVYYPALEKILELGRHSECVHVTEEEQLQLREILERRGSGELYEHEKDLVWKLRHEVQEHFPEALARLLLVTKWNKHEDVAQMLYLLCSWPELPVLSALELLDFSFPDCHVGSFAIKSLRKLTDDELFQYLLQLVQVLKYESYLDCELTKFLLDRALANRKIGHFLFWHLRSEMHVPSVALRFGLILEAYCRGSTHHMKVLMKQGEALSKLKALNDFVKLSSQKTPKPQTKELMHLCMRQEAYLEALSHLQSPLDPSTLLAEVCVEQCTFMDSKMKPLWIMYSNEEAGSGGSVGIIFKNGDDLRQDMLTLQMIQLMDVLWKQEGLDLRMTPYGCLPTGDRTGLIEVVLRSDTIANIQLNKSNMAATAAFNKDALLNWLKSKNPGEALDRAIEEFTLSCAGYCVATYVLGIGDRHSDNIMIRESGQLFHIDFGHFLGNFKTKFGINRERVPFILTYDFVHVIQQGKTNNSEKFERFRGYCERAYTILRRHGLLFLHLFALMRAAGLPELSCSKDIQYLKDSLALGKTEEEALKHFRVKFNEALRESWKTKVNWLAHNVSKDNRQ
Sequence of p110δ (P27986 whole entry partner): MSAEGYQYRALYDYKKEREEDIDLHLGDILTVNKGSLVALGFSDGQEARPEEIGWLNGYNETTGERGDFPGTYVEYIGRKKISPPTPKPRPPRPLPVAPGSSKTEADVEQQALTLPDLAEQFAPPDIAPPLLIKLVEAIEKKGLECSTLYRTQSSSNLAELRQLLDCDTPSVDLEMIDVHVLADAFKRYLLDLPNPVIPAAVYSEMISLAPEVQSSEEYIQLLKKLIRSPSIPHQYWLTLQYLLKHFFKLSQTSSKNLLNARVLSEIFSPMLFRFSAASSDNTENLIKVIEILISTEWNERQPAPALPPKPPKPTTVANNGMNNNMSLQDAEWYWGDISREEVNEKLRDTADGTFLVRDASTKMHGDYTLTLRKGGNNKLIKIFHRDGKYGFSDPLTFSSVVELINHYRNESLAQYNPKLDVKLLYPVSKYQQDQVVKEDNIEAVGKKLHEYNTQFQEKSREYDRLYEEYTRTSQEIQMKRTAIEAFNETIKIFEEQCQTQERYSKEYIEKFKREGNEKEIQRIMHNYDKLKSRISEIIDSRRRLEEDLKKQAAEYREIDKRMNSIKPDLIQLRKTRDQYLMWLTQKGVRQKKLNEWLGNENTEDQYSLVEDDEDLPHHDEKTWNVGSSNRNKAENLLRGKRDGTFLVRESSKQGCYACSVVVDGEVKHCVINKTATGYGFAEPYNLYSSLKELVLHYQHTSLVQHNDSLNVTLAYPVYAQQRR

CC(C)n1ncnc1-c1cn2c(n1)-c1ccc(O[C@@H](C)C(N)=O)cc1OCC2 [GDC0326, (S)-2-((2-(1-Isopropyl-1H-1,2,4-triazol-5-yl)-5,6-dihydrobenzo[f]imidazo [1,2-d][1,4]oxazepin-9-yl)oxy)propanamide]
activation of the stromal compartment (CD18 immune cell staining, picrosirius red collagen deposit staining) [1]: reversed the activation of the stromal compartment | lesion area ([1]; day 17, compared to caerulein-treated KC mice that received vehicle): significant decrease of lesion area | p-Akt substrate staining ([1]; day 17, vs vehicle): absence of p-Akt Subsrate staining | IC50 (p110β): 133 nM | IC50 (p110δ): 20 nM | IC50 (p110γ): 51 nM | Ki (mTOR): 4.3 µM | IC50 (C2β): 261 nM | IC50 (C2α): > 10 µM | IC50 (vps34): 2840 nM
